Assay results as given in US9566265B2, “Carbazole compounds and therapeutic uses of the compounds” (Incuron, LLC, priority 2008, dated 2017).
Converted amounts (≈) assume the structure as drawn. Like-named read-outs stand apart in the source and are kept apart here.

Key:
[1] = system: p53; test: p53 activation assay, p53 responsive luciferase reporter cell line; type: cell-based, human; conditions: Homo sapiens, 16 h, HT1080-L or RCC45ConALuc reporter cells, 16 h; read-out: EC50 value (p53 activation)
[2] = system: C. krusei; test: in vitro susceptibility CLSI M27A3, MIC; type: cell-based; conditions: Pichia kudriavzevii, ATCC6258; strain ATCC 6258, WT, Susceptible (naturally fluconazole resistant); read-out: MIC* (48 hs)
[3] = system: C. lipolytica; test: in vitro susceptibility CLSI M27A3, MIC; type: cell-based; conditions: Yarrowia lipolytica, strain M159, WT, Susceptible
Excerpt: (§1) Other Candida spp. and genera: 1 C. rugosa (M83), 1 C. lipolytica (M159), C. lusitaniae (200450), 1 Cryptococcus neoformans (499), and 1 Debaryomyces hansenii.

[4] = system: C. lusitaniae; test: in vitro susceptibility CLSI M27A3, MIC; type: cell-based; conditions: Clavispora lusitaniae, strain 200450, WT, Susceptible
Excerpt: as §1

[5] = system: C. rugosa; test: in vitro susceptibility CLSI M27A3, MIC; type: cell-based; conditions: Diutina rugosa, strain M83, WT, Susceptible
Excerpt: as §1

[6] = system: Cryptococcus neoformans; test: in vitro susceptibility CLSI M27A3, MIC; type: cell-based; conditions: strain 499, WT, Susceptible
Excerpt: as §1

[7] = system: Debaryomyces hansenii; test: in vitro susceptibility CLSI M27A3, MIC; type: cell-based; conditions: strain 20124, WT, Susceptible
Excerpt: as §1

[8] = system: bacteria; test: antibacterial cytotoxicity assay, comparison with ampicillin control; type: cell-based
Protocol: In particular, the effect of carbazole compounds of the present invention on gram positive (Bacillus subtilis) and gram negative (DH5-α) bacteria was determined by the following procedure, and is summarized in FIGS. 13A and 13B.
Each library chemical to be tested requires 2 rows of a 96-well plate, thus 4 chemicals (e.g. W, X, Y, Z) can be tested in one plate simultaneously. In addition to test chemicals, each plate should include positive and negative controls. As positive control, ampicillin is used at 100 μg/ml. As a negative control, DMSO is used in an amount equal to the highest volume of test compound used (˜0.25% DMSO for 50 μM).
Besides a positive control added in one concentration on each plate, the positive control of ampicillin is added to each assay run in a full concentration range (3 fold dilutions) to ensure proper and robust assay performance (estimated by comparison of dose response curves among runs).
The average OD600 nm of the test compound solutions are compared to that of the DMSO control by dividing the average OD600 nm of the test solution by that of the DMSO control and multiplying by 100 to produce the % DMSO control (i.e. % cytotoxicity). The % DMSO control is plotted vs compound concentration to generate sigmoid shaped curves. After three runs are complete, the raw data for all three runs is used for IC50 calculations.

[9] = system: A. flavus; test: in vitro susceptibility CLSI M38A2, MIC; conditions: Aspergillus flavus
Excerpt: Eight Aspergillus spp. strains were used throughout the study. Six A. fumigatus, one A. flavus and one A. terreus also were used. The A. fumigatus group included two itraconazole-resistant strains (RIT13 and RIT5 strains) (1), one triazole cross-resistant strain (MUT10) (2, 3), one echinocandin cross-resistant strain (EMFRS678P) (4), and 2 wild type susceptible isolates (R21 and ATCC13073).

## CCN(CC)CCn1c2ccc3c(c2c2c4c(ccc21)C(=O)CC4)CCC3=O [Example 15]
[1]
  EC50: 0.03 µM
[2]
  MIC: 0.66 µM (≈ 0.247 µg/mL)
[3]; read-out: MIC* (24 hs)
  MIC: 0.02 µM (≈ 0.00749 µg/mL)
[3]; read-out: MIC* (48 hs)
  MIC: 0.08 µM (≈ 0.03 µg/mL)
[4]; read-out: MIC* (24 hs)
  MIC: 0.04 µM (≈ 0.015 µg/mL)
[4]; read-out: MIC* (48 hs)
  MIC: 0.16 µM (≈ 0.0599 µg/mL)
[5]; read-out: MIC* (24 hs)
  MIC: 0.16 µM (≈ 0.0599 µg/mL)
[5]; read-out: MIC* (48 hs)
  MIC: 0.66 µM (≈ 0.247 µg/mL)
[6]; read-out: MIC* (24 hs)
  MIC: 0.02 µM (≈ 0.00749 µg/mL)
[6]; read-out: MIC* (48 hs)
  MIC: 0.08 µM (≈ 0.03 µg/mL)
[7]; read-out: MIC* (24 hs)
  MIC: 0.16 µM (≈ 0.0599 µg/mL)
[7]; read-out: MIC* (48 hs)
  MIC: 0.16 µM (≈ 0.0599 µg/mL)
[8]
  effectiveness against bacteria compared with the ampicillin control: more effective
[9]; read-out: MIC* (24 hs)
  MIC: 0.33 µM (≈ 0.124 µg/mL)
[9]; read-out: MIC* (48 hs)
  MIC: 0.33 µM (≈ 0.124 µg/mL)
